Results taken from publication PMC8136953 (Veterinary Medicine and Science, 2020).
Values joined by “and” are separate entries in the source; they are usually repeats but may differ in a detail not shown here. Identical values can stand only once. Like-named read-outs stand apart in the source and are kept apart here.

Key:
[1] = Plasma pharmacokinetics of FLO after a single dietary administration
Protocol: Apparently healthy European seabass averaging about 100 ± 12 g were obtained from a local fish farm (Selonda aquaculture S.A) and distributed in two cages (1 m^3) located within a 50 m^3 cement tank (85 fish/cage). Water was supplied by open flow and oxygen was provided continuously by bubbling air. The water temperature and salinity were 24 ± 1°C and 38‰, respectively. Fish were allowed to acclimate for 7 days prior to experimentation and fed a drug‐free commercial diet at 1.5% body weight (B.W.).
During the trial, the experimental diet was stored at 4°C and was left to obtain ambient temperature before delivery.
Sampling of fish was performed at predetermined time points during and post treatment (Figure 1) after anesthetization with clove oil (40 mg/L). […] At each sampling point, 10 fish were killed by a blow to the head and tissue samples were obtained. Approximately, 2 ml of blood was drawn with a needle (Microlance 23G 11/4 0.6 × 30; Becton Dickinson, Zaragoza, Spain) from the caudal vein at selected time points during treatment and transferred into heparinised test tubes. Plasma was separated from blood samples by centrifugation at 20,160 g for 10 min at 4°C. Moreover for the withdrawal study, muscle plus skin (approximately 5 g) were taken from the anterior dorsal region on days 1, 2, 3, 4 and 6 post treatment. All prepared tissue samples were immediately frozen and stored at −20°C until analysis.
Briefly, 1 ml of plasma sample was placed in a 10 ml polypropylene centrifuge tube with 500 μl of acetonitrile:water (35:65, v/v). […] The homogenised samples were centrifuged (8,000 g for 10 min) and the supernatant was transferred to a 15 ml polypropylene centrifuge tube. The extraction step was repeated twice. The combined extract was then evaporated to dryness at 40°C under a gentle stream of nitrogen. The residue was reconstituted by 1 ml of mobile phase solution. Five milliliter of hexane were added into the tube and after mixing it was subjected to centrifugation for 5 min at 2,150 g prior to the removal of the hexane layer. The afore‐mentioned de‐fatting step was also repeated twice. The water‐based phase was filtered using 0.22 μm nylon filter and the filtrate (200 μl) was then analysed by HPLC.
The column temperature was maintained at 30°C and the injected volume was 200 μl. As a mobile phase, (A) an aqueous solution of NaH2PO4 (0.01 M) containing 0.005 M sodium dodecyl sulphate and 0.1% triethylamine (pH 4.8 adjusted with 85% phosphoric acid) and (B) acetonitrile were used (A/B, 65:35, v/v). The flow rate was 1.0 ml/min.
The area under the concentration–time curve (AUC0‐∞) was determined using trapezoidal method and was extrapolated to infinity.

[2] = Minimum plasma concentrations of FLO during multiple oral administrations; assay type: in vivo; settings: European seabass (Dicentrarchus labrax), 10 mg/kg/day, multiple oral 10 mg/kg per day for seven consecutive days, 24°C, read-out: Minimum plasma concentrations at the 24 hr sampling intervals
Protocol: The extraction step was repeated twice.
(§1) The flow rate was 1.0 ml/min.
Results are presented as means ± SD (standard deviation of the mean). […] The SPSS version 25.0 (International Business Machines Corporation, Armonk, NY, USA) was used for the statistical analysis.

[3] = Residue depletion in muscle plus skin and withdrawal times after multiple oral dosing; assay type: in vivo, European seabass Dicentrarchus labrax; settings: 10 mg kg^−1 day^−1 for 7 days, 24°C, mean ± SD
Protocol: Briefly, muscle plus skin samples were sheared, and subsequently 2 g of ground sample was weighed into a 50 ml centrifuge tube. Ten ml of ethyl acetate were added and the mixture was homogenized with an IKA Ultra‐Turrax T25 Disperser (IKA®‐Werke GmbH & Co. KG, Staufen, Germany) for 30 s at […]. The mixture was agitated for 20 min and then was centrifuged at 3,500 rpm/min for 10 min at 5°C. […] The combined extract was then evaporated to dryness at 45°C under nitrogen stream. Two milliliter of hexane and 1 ml of mobile phase solution were added in the residue. After gentle agitation for 5 min, the mixture was centrifuged (2,150 g for 5 min). The upper layer (hexane) was discarded and the de‐fatting step was repeated. The bottom layer (1 ml) was filtered (0.22 μm nylon filter) and then was subjected to HPLC analysis.
as §1
Withdrawal period was determined at the time when the upper one‐sided 95% tolerance limit for the residue was below the MRL with 95% confidence.

[4] = 0‰, cited from earlier work
[5] = design: method as in Park et al. (2006); settings: 0‰, SO, 20 mg/kg fish, 280 g, 24 °C; ref Park et al. (2006); cited from earlier work
[6] = design: method as in Yanong et al. (2005); settings: 0‰, SO, 50 mg/kg fish, 19 g, 23–25 °C; ref Yanong et al. (2005); cited from earlier work
[7] = 0‰, cited from earlier work; for WT: MO, 13 °C
[8] = 0‰, 25 °C, cited from earlier work
[9] = 33‰, SO‐FA, cited from earlier work
[10] = European seabass (Dicentrarchus labrax), plasma, oral, 10 mg/kg
[11] = MO‐FA, 10 × 5d mg/kg fish, 330 g, 10 °C, ref Yang et al. (2020)
[12] = MO‐FA, 10 × 5d mg/kg fish, 330 g, 25 °C, ref Yang et al. (2020)
[13] = SO‐FA, 10 mg/kg fish, 260 g, 10 °C, ref Yang et al. (2019)
[14] = SO‐FA, 10 mg/kg fish, 260 g, 25 °C, ref Yang et al. (2019)
[15] = SO‐FA, 40 mg/kg fish, 260 g, 25 °C, ref Zhao et al. (2011)
[16] = SO, 10 mg/kg fish, 140 g, 14–15 °C, ref Pourmolaie et al. (2015)
[17] = MO‐FA, 10 × 10d mg/kg fish, 612 g, ref Gaunt et al. (2013)
[18] = SO‐FA, 10 mg/kg fish, ref Gaunt et al. (2012)
[19] = 24 mg/kg fish, 125 g, 23 °C, ref Feng et al. (2016)
[20] = 5–10 mg/kg fish, 103–301 g, 29 °C, ref Feng et al. (2018)

In the case of CS(=O)(=O)c1ccc([C@@H](O)[C@@H](CF)NC(=O)C(Cl)Cl)cc1 [FLO, florfenicol], the Tmax [1, 10] is reported as 4 h, the concentration at 24 hr [1, 10] is reported as 550 ng/mL and the AUC ([1]; European seabass (Dicentrarchus labrax), plasma, po, 10 mg/kg) is reported as 34700 ng·h/mL. The half-life ([1]; in vivo, po, 10 mg/kg) was 13 h, the AUC ([1]; plasma, po, 10 mg/kg) was 34700 ng·h/mL and the Maximum plasma concentration ([1]; single dietary administration 10 mg/kg, plasma, 24°C) was 1.6 µg/mL and 1.64 µg/mL. For the same compound, the concentration at 24 hr [2] was 220 to 550 ng/mL, the “Muscle plus skin FLO concentration” value ([3]; 144 hours after last dosing) was “below LOQ” and the concentration at 24 hours after last dosing ([3]; European seabass (Dicentrarchus labrax), in vivo, 24 hours after last dosing) was 800 ± 1740 ng/g. The concentration at 48 hours after last dosing ([3]; European seabass (Dicentrarchus labrax), in vivo, 48 hours after last dosing) was 250 ± 640 ng/g, the concentration at 72 hours after last dosing ([3]; European seabass (Dicentrarchus labrax), in vivo, 72 hours after last dosing) was 40 ± 20 ng/g and the concentration at 96 hours after last dosing ([3]; European seabass (Dicentrarchus labrax), in vivo, 96 hours after last dosing) was 40 ± 10 ng/g. For the same compound, the concentration at 144 hours after last dosing ([3]; European seabass (Dicentrarchus labrax), in vivo, 144 hours after last dosing) was 30 ± 10 ng/g, the C max [4, 11] was 4000 ng/mL and the “t 1/2b” value [4, 11] was 19.9 h. For the same compound, the C max [4, 12] was 1700 ng/mL, the “t 1/2b” value [4, 12] was 12.9 h and the C max [4, 13] was 2400 ng/mL. The T max [4, 13] was 2.8 h, the “t 1/2b” value [4, 13] was 22.9 h and the C max [4, 14] was 3500 ng/mL. The T max [4, 14] was 3.7 h, the “t 1/2b” value [4, 14] was 9.6 h and the C max [4, 15] was 29300 ng/mL. The T max [4, 15] was 1.6 h, the “t 1/2b” value [4, 15] was 2.2 h and the C max [5] was 9600 ng/mL. For the same compound, the T max [5] was 8 h, the C max [6] was 2600 ng/mL and the T max [6] was 5 h. The WT ([7]; 10 × 10d mg/kg fish, 220 g, ref Di Salvo et al. (2013)) was 108 h, the WT ([7]; 15–20 × 10d mg/kg fish, 126–617 g, ref Meinertz et al. (2014)) was 360 h and the C max [7, 16] was 6100 ng/mL. The T max [7, 16] was 9 h, the C max [8, 17] was 9700 ng/mL and the T max [8, 17] was 8 h. For the same compound, the C max [8, 18] was 7600 ng/mL, the T max [8, 18] was 9 h and the “t 1/2b” value [8, 18] was 9.1 h. The C max [9, 19] was 28000 ng/mL, the “t 1/2b” value [9, 19] was 11.6 h and the C max [9, 20] was 6000 to 13000 ng/mL. For the same compound, the “t 1/2b” value [9, 20] was 8.5 to 9.3 h.
